In patent publication US4916122A, “3'-Azido-2',3'-dideoxyuridine anti-retroviral composition” (University of Georgia Research Foundation, Inc., priority 1987, dated 1990):
≈ marks a conversion by molar mass, not a printed value.

Assays:
[1] = biological target: T1, HIV RT (Human immunodeficiency virus type 1 group M subtype B, UniProt P03367); test: Effect of 5'-triphosphates on HIV reverse transcriptase (Table 6); format: biochemical; details: 5'-triphosphate; read-out: HIV RT K1
T1 construct: HIV reverse transcriptase

[2] = biological target: T2, Host cell α-DNA pol (Homo sapiens, UniProt P09884); test: Effect of 5'-triphosphates on alpha DNA polymerase (Table 6); format: biochemical
T2 sequence (P09884 1-1462): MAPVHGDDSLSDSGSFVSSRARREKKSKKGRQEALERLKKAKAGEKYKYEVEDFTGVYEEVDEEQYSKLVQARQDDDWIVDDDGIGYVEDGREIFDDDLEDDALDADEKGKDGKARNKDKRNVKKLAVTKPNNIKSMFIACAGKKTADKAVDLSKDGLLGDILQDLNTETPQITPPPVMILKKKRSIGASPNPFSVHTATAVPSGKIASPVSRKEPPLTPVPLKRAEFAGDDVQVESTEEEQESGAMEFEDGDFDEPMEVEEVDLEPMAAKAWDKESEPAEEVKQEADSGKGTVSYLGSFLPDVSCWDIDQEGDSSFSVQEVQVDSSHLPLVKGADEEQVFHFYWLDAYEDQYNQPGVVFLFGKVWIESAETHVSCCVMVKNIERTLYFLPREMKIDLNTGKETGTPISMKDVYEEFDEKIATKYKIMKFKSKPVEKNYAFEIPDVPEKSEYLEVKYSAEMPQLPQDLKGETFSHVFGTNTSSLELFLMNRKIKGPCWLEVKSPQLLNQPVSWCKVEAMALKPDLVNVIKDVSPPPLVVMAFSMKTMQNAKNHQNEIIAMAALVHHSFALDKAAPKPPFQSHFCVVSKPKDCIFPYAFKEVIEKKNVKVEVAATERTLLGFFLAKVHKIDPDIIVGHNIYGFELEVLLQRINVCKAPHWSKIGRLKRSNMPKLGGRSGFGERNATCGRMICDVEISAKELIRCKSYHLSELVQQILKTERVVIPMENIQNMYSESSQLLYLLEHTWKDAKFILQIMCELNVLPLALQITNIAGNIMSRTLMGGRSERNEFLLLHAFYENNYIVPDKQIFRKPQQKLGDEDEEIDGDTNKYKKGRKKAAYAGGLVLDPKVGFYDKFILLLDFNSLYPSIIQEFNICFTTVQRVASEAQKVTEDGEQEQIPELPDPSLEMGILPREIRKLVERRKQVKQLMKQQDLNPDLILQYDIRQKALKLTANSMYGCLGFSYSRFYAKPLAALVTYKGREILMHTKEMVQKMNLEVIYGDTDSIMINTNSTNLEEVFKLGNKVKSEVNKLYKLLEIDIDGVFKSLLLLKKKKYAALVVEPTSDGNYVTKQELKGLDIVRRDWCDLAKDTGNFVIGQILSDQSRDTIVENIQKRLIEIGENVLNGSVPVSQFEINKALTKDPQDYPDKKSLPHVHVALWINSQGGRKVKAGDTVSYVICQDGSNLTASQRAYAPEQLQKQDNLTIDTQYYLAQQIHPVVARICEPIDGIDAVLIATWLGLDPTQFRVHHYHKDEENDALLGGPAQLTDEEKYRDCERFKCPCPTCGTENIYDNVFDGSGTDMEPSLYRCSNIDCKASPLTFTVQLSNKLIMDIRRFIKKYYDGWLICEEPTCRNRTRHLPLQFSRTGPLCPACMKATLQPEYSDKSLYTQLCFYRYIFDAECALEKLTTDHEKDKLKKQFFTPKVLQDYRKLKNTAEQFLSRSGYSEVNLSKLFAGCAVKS

[3] = system: HIV-1 and SIV; test: Effect of delayed treatment on replication of HIV-1 and SIV in human PBM cells (FIG. 7); format: cell-based, HIV-1; SIV
From the text: (§1) A comparison of the differences in median effective an tiviral concentrations between human, non-human primate, and murine retroviruses is shown in Table 5. […] A further comparison of the activity of several nucleoside analogues, including CS-87, against HIV-1 and SIV in human PBM cells is shown in FIG. 6. The effect of delayed treatment with AZT, CS-87 or CS-91 on the replication of HIV-1 and SIV in human PBM cells is shown in FIGS. 7a, b, and c.

[4] = system: SIV (SMM); test: Median effective antiviral concentration against SIV (Table 5); format: cell-based, simian immunodeficiency virus; details: Simian immunodeficiency virus
From the text: as §1

[5] = system: Mouse ecotropic (Cas-Br-M); test: Median effective antiviral concentration against mouse ecotropic virus (Table 5); format: cell-based, murine retrovirus; details: unidentified retrovirus
From the text: as §1

[6] = system: HIV (LAV-1); test: Median effective antiviral concentration against HIV (Table 5); format: cell-based; details: Human immunodeficiency virus 1
[7] = system: L1210 cells; details: in vitro; Lin et al.; Lin and Mancini; cited from earlier work
[8] = system: sarcoma 180 cells; details: in vitro; Lin et al.; cited from earlier work
[9] = system: two particular enzymes isolated from L1210 cells; details: Lin et al.; cited from earlier work
[10] = system: HIV-1 (Strain HTLV-III); test: Antiviral activity against HIV-1 in ATH-8 cells (Table 4); details: Human immunodeficiency virus 1, 240 h, read-out: ATH-8 (MIC)
[11] = system: HIV-1; test: microbe, parasite or virus in culture; details: Human immunodeficiency virus 1, PBMC, read-out: PBM (EC50)
[12] = system: HIV-1 (Strain RF-II); test: Antiviral activity against HIV-1 in HeLa-T4 cells (Table 4); format: cell-based; details: Human immunodeficiency virus 1, HeLaT4, HIV-1
Procedure: Evaluation in Hela-T4 cells infected with HIV-1 (Strain RF-II)
HeLa-T4 cells (described in Cell 47: 333, 1986) are maintained in Dulbecco's Modified Eagle medium containing 10% inactivated fetal calf serum, penicillin (100 U/ml) and streptomycin (100 μg/ml), and the antibiotic G418 (1 mg/ml). The cells are seeded onto a 96-well plate (2×10^4 cells/well per 0.1 ml), and two days later, the supernatant is removed and the virus added. After adsorption for 45 minutes, the inoculum is removed and the cells washed with phosphate-buffered saline (pH 7.2). The compounds at different concentration are then added in maintenance medium (containing 2% serum). […] The cells are fixed with a mixture of 5% glacial acetic acid/95% Ethanol for 15 minutes, and then stained with Giemsa (20% in PSB) for 4 hours. The plates are then washed and dried. The foci are then enumerated with a dissecting stereomicroscope.

Question: What does the source list for [N-]=[N+]=N[C@H]1C[C@H](n2ccc(=O)[nH]c2=O)O[C@@H]1COP(=O)(O)OP(=O)(O)OP(=O)(O)O [CS-87-TP, 3'-azido-2',3'-dideoxyuridine triphosphate]?
Answer: Ki [1]: 0.009 µM; Ki ([2]; 5'-triphosphate, read-out: Host cell α-DNA pol K1): 1200 µM; Ratio: Cellular/HIV ([2]; K1 host cell α-DNA pol / K1 HIV RT): 133,333

Question: For [N-]=[N+]=N[C@H]1C[C@H](n2ccc(N)nc2=O)O[C@@H]1CO [CS-91, 3' azido 2',3'-dideoxycytidine], which “effect of delayed treatment on replication of HIV-1 and SIV” value [3] is on record?
Answer: time of administration is critical to the effectiveness of the treatment

Question: What about the EC50 [4] of the same compound?
Answer: 1.16 µM

Question: And the EC50 [5]?
Answer: 77.9 µM

Question: And the EC50 [6]?
Answer: 0.39 µM

Question: For Nc1ccn([C@H]2CC[C@@H](CO)O2)c(=O)n1 [DDC, reference compound], which “activity against L1210 cells” value [7] is on record?
Answer: inactive

Question: What about the “activity against sarcoma 180 cells” value [8] of the same compound?
Answer: inactive

Question: And the “inhibitory activity towards two particular enzymes isolated from L1210 cells” value [9]?
Answer: only marginal inhibitory activity

Question: With Nc1ccn([C@H]2CC[C@@H](CO)O2)c(=O)n1 [d2C (ddC), 2',3'-dideoxycytidine, reference compound] as the compound, how does the MIC [10] read?
Answer: 0.47 µM (≈ 0.0993 µg/mL)

Question: And the EC50 [11]?
Answer: 0.011 µM

Question: What about the EC50 [12] of the same compound?
Answer: 0.48 µM
